Reference: US7928236B2, “Fluorescent amino acid derivatives” (National University Corporation Okayama University, priority 2005, dated 2011)

Tests used:
Absorption spectrum = assay type: physicochemical; settings: in ethanol, water and ethanol/water (6:4), 2.3×10^−5M, room temperature
Procedure: Boc-badAla-OH prepared in Example 2 was dissolved respectively in ethanol, water and a mixture of ethanol and water (6:4) in a concentration of 2.3×10^−5M, and their absorption spectra were measured at room temperature using JASCO “V560” supplied by JASCO Corporation.

Fluorescence lifetime = assay type: physicochemical; settings: 50 mM PBS (pH7.0), 3×10^−4M, room temperature, excitation 415 nm, measured at 500 nm
Procedure: Boc-badAla-OH prepared in Example 2 was dissolved in 50 mM PBS (pH7.0) in a concentration of 3×10^−4M, and fluorescence intensity was measured at room temperature at 500 nm, setting the excitation wavelength at 415 nm of blue laser from a simple-type beam system, using Hamamatsu “microchannel photomultiplier tube” supplied by Hamamatsu Photonics K.K. which was cooled to −30° C., and then fluorescence lifetime was measured.
As a result, the obtained fluorescence lifetime was τ=16.6 nanoseconds.
While the lifetime of BODIPY, a commercial product, was 5.7 nanoseconds (MeOH) on the literature, and that of FITC was 4.1 nanoseconds (0.01M NaOH) on the literature. The other primary spectroscopic properties of fluorescent probes were listed on the homepage of IOM GmbH (see, www.iom-berlin.de).

Photostability = assay type: physicochemical; settings: water, 1.2×10^−6M, room temperature, continuous 468 nm irradiation for an hour
Procedure: Boc-badAla-OH prepared in Example 2 was dissolved in water in a concentration of 1.2×10^−6M, and photostability was examined at room temperature using ISA “FluoroMax-2” analyzer, irradiating a beam of 468 nm excitation wavelength continuously for an hour. As a result, […] an hour after the irradiation, it held 95% fluorescence intensity of that at the start of the experiment (FIG. 6). […] On the other hand, values of commercial products BODIPY and FITC shown on the literature, obtained by dissolving them respectively in TBS buffer for measurement on FluoroMax, were respectively 88% and 85%.

[1] = TBS buffer, measured on FluoroMax, values on the literature; cited from earlier work
[2] = 0.01M NaOH, on the literature; cited from earlier work

maximum absorption wavelength (Absorption spectrum)	fluorescence lifetime τ (Fluorescence lifetime)	fluorescence intensity held relative to start of experiment (Photostability)	Compound	photostability (fluorescence intensity held) [1]	fluorescence lifetime [2]
around 460 nm	16.6 nanoseconds	95%	CC(C)(C)OC(=O)NC(Cc1ccc2[nH]c3cc4ccccc4cc3c(=O)c2c1)C(=O)O (centres unmarked) [Boc-badAla-OH]	–	–
–	–	–	O=C1OC2(c3ccc(O)cc3Oc3cc(O)ccc32)c2ccc(N=C=S)cc21 [FITC]	85%	4.1 nanoseconds
